Measurements published in PubChem BioAssay (NCI).
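In this assay, cells in 96-well plates receive the compound at five concentrations for 48 hours. Endpoints are linearly interpolated between the surrounding concentrations. Definition used: TGI = concentration required for complete inhibition of growth.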

Tests used:
Test in all cases: inhibition of tumour cell growth, NCI panel, 48 h
786-0 renal = tested on: 786-0 renal
A549 NSCLC = tested on: A549 NSCLC
ACHN renal = tested on: ACHN renal
BT-549 breast = tested on: BT-549 breast
CAKI-1 renal = tested on: CAKI-1 renal
CCRF-CEM leukemia = tested on: CCRF-CEM leukemia
COLO 205 colon = tested on: COLO 205 colon
DU-145 prostate = tested on: DU-145 prostate
EKVX NSCLC = tested on: EKVX NSCLC
HCT-116 colon = tested on: HCT-116 colon
HCT-15 colon = tested on: HCT-15 colon
HL-60(TB) leukemia = tested on: HL-60(TB) leukemia
HOP-62 NSCLC = tested on: HOP-62 NSCLC
HS 578T breast = tested on: HS 578T breast
HT29 colon = tested on: HT29 colon
IGROV1 ovarian = tested on: IGROV1 ovarian
K-562 leukemia = tested on: K-562 leukemia
KM12 colon = tested on: KM12 colon
LOX IMVI melanoma = tested on: LOX IMVI melanoma
M14 melanoma = tested on: M14 melanoma
MCF7 breast = tested on: MCF7 breast
MDA-MB-231 breast = tested on: MDA-MB-231 breast
MDA-MB-435 = tested on: MDA-MB-435
MDA-N = tested on: MDA-N
MOLT-4 leukemia = tested on: MOLT-4 leukemia
NCI-H226 lung = tested on: NCI-H226 lung
NCI-H460 lung = tested on: NCI-H460 lung
NCI-H522 lung = tested on: NCI-H522 lung
NCI/ADR-RES ovarian = tested on: NCI/ADR-RES ovarian
OVCAR-3 ovarian = tested on: OVCAR-3 ovarian
OVCAR-4 ovarian = tested on: OVCAR-4 ovarian
OVCAR-5 ovarian = tested on: OVCAR-5 ovarian
OVCAR-8 ovarian = tested on: OVCAR-8 ovarian
PC-3 prostate = tested on: PC-3 prostate
RPMI-8226 leukemia = tested on: RPMI-8226 leukemia
RXF 393 renal = tested on: RXF 393 renal
SF-268 CNS = tested on: SF-268 CNS
SF-295 CNS = tested on: SF-295 CNS
SF-539 CNS = tested on: SF-539 CNS
SK-MEL-2 melanoma = tested on: SK-MEL-2 melanoma
SK-MEL-28 melanoma = tested on: SK-MEL-28 melanoma
SK-MEL-5 melanoma = tested on: SK-MEL-5 melanoma
SK-OV-3 ovarian = tested on: SK-OV-3 ovarian
SN12C renal = tested on: SN12C renal
SNB-19 CNS = tested on: SNB-19 CNS
SNB-75 CNS = tested on: SNB-75 CNS
SR leukemia = tested on: SR leukemia
SW-620 colon = tested on: SW-620 colon
T-47D breast = tested on: T-47D breast
TK-10 renal = tested on: TK-10 renal
U251 CNS = tested on: U251 CNS
UACC-257 melanoma = tested on: UACC-257 melanoma
UACC-62 melanoma = tested on: UACC-62 melanoma
UO-31 renal = tested on: UO-31 renal
A498 renal = tested on: A498 renal
HCC-2998 colon = tested on: HCC-2998 colon
HOP-92 NSCLC = tested on: HOP-92 NSCLC
MALME-3M melanoma = tested on: MALME-3M melanoma
NCI-H23 lung = tested on: NCI-H23 lung

Measured: TGI

Cc1ccc(S(=O)(=O)N(CCN2C(=O)c3ccccc3C2=O)c2cc3c4c(c2)Oc2cc(N(CCN5C(=O)c6ccccc6C5=O)S(=O)(=O)c5ccc(C)cc5)cc5c2C4(C)c2c(cc(N(CCN4C(=O)c6ccccc6C4=O)S(=O)(=O)c4ccc(C)cc4)cc2O5)O3)cc1
45.8 µM: MDA-MB-231 breast
not listed: A498 renal | HCC-2998 colon | HOP-92 NSCLC | MALME-3M melanoma | NCI-H23 lung
> 100 µM: all other assays above

COC(=O)CCc1ccc2c(c1)[C@H](C(=O)OC)[C@@H](c1ccc(O)cc1)O2
65.9 µM: SF-539 CNS
67.1 µM: NCI-H226 lung
47.1 µM: HCT-116 colon
not listed: 786-0 renal | RXF 393 renal | SNB-75 CNS
> 100 µM: all other assays above
